Laboratory results reported in patent publication US9241930B2, “Compositions and methods for treating viral diseases” (NovaDrug, LLC, priority 2011, dated 2016).

Test system: mouse bone marrow polychromatic erythrocytes
Settings: mice, single oral gavage

O=P1(N(CCCl)CCCl)NCCCO1 (centres unmarked) [Cyclophosphamide monohydrate]
bone marrow cytotoxicity (erythropoiesis): some cytotoxicity
incidence of micronucleated polychromatic erythrocytes (48 hour time-point, p≦0.05): significant increase
